Broadly, the pEC50 is −log10 of the EC50, conventionally taken in molar units.

The values below come from the supplement of paper PMC6411743.

Compound in the assay: Nc1ncnc2c1ncn2[C@@H]1O[C@H](COP(=O)(O)OP(=O)(O)OP(=O)(O)O)[C@@H](O)[C@H]1O [adenosine triphosphate]
As to the kind of experiment: pEC50 of ATP-induced change in protein thermal stability (2D-TPP). A digest of the protocol: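 Soluble protein was quantified by TMT LC-MS/MS after ultracentrifugation of Jurkat crude lysate that had been dosed at five concentrations including vehicle (10 min, room temperature), heated at 12 temperatures of 42–63.9 °C for 3 min, and incubated with NP40 and benzonase at 4 °C for 60 min. Fold changes against vehicle at each temperature were median-normalised, and pEC50 was derived from per-replicate dose-response fits over adjacent temperature pairs. Hits were called with permutation-based false discovery rate control in three independent experiments.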

A value given as a limit tells only on which side of the number the result lay.
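Further: lysate dosed with Na-ATP at 0 0.005 0.05 0.5 and 2 mM.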

Sequence of UniProt Q96P70 (Q96P70 whole entry): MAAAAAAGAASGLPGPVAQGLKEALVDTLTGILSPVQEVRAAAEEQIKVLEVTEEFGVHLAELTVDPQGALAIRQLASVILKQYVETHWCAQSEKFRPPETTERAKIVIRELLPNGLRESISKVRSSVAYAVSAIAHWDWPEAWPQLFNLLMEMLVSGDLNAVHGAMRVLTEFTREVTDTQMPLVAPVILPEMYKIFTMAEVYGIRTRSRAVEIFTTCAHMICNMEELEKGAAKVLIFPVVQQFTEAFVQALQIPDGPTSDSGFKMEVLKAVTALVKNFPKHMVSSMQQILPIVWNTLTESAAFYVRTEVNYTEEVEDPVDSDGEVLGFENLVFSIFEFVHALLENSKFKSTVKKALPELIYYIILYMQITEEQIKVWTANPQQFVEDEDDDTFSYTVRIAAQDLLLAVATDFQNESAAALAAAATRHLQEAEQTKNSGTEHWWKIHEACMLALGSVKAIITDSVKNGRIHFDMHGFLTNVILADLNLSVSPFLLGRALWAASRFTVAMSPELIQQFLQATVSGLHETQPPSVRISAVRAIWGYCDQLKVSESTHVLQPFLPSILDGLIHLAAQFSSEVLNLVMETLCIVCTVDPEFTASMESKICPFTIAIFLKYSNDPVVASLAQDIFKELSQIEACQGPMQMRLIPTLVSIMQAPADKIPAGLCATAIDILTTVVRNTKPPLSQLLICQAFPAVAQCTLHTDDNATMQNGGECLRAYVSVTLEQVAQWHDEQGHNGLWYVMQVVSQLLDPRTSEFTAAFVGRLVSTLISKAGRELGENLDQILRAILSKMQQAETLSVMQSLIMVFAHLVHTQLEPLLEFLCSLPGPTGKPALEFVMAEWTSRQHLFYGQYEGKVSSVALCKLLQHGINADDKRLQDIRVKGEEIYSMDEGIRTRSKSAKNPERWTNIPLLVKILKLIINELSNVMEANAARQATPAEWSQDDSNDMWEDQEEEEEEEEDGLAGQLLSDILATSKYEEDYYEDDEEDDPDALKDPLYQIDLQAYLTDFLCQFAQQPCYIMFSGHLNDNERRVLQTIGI
Sequence of UniProt Q9HCN4 (Q9HCN4 whole entry): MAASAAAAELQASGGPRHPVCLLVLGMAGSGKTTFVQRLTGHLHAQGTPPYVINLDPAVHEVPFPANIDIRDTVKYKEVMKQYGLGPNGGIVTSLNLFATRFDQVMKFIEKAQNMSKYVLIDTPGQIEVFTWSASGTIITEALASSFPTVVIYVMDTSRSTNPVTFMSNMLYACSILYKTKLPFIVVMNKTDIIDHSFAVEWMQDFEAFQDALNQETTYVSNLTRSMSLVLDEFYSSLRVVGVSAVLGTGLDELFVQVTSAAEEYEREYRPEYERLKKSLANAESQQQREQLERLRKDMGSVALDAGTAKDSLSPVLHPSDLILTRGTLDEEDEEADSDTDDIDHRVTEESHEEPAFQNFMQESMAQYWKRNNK
Sequence of UniProt P78347 (P78347 whole entry): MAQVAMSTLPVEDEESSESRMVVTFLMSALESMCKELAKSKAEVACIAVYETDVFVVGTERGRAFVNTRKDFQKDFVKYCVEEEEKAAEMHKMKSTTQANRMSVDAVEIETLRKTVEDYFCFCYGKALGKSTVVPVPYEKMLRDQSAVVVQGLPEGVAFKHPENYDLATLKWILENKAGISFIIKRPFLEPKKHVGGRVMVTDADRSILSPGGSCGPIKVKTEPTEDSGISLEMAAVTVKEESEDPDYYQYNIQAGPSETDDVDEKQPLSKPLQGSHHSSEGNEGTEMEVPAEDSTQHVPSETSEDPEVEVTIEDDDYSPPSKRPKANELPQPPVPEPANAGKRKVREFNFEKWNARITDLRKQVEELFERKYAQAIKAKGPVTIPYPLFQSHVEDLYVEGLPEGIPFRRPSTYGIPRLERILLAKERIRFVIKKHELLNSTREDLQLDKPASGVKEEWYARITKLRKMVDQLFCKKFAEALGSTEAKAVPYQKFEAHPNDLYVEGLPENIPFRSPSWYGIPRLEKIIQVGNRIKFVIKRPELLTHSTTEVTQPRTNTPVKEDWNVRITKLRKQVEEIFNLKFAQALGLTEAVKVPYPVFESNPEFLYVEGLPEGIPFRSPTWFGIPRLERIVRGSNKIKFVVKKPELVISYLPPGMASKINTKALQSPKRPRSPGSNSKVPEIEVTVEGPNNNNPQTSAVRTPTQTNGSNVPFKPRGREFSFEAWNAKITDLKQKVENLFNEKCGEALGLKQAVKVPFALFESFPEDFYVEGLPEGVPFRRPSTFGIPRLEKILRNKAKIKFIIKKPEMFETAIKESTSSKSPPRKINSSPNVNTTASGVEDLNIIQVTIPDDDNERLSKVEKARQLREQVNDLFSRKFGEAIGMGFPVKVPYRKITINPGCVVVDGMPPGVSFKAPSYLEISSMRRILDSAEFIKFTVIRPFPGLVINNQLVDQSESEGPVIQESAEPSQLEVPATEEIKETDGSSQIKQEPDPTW
Sequence of UniProt O15066 (O15066 whole entry): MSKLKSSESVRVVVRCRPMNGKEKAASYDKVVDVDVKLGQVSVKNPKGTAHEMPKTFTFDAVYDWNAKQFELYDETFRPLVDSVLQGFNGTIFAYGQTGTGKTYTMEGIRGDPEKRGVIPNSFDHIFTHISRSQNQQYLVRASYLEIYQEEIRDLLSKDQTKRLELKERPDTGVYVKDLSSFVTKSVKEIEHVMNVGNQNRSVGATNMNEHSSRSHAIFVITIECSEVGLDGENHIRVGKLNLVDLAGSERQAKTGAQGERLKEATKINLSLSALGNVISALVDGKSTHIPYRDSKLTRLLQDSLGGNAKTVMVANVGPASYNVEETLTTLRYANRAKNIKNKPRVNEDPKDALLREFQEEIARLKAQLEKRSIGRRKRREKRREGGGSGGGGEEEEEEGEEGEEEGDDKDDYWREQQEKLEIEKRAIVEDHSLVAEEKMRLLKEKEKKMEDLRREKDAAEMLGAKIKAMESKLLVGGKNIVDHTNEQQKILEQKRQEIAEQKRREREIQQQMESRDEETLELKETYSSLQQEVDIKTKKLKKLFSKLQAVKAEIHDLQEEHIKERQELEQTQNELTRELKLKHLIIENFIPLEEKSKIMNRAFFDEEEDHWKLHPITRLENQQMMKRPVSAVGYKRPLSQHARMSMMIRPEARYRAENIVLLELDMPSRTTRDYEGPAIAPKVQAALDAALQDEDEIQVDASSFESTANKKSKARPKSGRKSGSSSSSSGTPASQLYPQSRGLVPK
Sequence of UniProt O95235 (O95235 whole entry): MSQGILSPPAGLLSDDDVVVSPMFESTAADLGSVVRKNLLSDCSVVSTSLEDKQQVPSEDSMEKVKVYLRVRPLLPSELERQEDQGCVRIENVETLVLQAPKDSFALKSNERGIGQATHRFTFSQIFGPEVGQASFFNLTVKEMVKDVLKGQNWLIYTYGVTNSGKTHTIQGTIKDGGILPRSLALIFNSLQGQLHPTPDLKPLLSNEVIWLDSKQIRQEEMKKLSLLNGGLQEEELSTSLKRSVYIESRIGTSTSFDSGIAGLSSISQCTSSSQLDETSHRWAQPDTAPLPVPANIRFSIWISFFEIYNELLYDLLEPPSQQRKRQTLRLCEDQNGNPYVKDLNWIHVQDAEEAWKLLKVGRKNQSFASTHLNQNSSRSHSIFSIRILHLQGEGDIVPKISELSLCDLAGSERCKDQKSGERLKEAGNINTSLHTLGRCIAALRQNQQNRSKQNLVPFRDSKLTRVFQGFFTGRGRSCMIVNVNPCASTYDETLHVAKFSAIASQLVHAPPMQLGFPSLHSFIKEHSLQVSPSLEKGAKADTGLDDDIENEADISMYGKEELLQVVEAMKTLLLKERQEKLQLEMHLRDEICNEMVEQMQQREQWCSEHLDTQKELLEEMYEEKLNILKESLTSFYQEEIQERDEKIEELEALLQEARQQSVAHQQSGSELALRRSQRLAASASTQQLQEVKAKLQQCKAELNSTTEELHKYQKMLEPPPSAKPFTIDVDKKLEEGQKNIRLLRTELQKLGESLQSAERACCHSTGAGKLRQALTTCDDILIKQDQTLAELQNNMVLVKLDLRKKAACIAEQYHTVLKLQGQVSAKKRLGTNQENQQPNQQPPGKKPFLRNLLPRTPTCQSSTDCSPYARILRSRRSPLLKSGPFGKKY
Sequence of UniProt Q8TBB5 (Q8TBB5 whole entry): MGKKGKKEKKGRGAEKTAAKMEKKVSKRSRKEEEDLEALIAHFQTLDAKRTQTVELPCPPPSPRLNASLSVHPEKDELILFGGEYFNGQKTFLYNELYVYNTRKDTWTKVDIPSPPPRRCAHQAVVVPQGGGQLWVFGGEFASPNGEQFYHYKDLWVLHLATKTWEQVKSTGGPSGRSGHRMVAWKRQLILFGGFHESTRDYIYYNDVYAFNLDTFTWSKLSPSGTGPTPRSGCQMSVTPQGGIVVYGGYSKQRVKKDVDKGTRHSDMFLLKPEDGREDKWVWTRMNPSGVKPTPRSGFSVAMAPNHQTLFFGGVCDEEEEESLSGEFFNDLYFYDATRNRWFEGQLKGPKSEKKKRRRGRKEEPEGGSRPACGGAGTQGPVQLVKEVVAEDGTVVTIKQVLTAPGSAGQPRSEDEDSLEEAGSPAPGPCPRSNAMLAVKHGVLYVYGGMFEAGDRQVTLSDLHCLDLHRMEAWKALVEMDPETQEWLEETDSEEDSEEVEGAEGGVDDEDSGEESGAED
Sequence of UniProt P31943 (P31943 whole entry): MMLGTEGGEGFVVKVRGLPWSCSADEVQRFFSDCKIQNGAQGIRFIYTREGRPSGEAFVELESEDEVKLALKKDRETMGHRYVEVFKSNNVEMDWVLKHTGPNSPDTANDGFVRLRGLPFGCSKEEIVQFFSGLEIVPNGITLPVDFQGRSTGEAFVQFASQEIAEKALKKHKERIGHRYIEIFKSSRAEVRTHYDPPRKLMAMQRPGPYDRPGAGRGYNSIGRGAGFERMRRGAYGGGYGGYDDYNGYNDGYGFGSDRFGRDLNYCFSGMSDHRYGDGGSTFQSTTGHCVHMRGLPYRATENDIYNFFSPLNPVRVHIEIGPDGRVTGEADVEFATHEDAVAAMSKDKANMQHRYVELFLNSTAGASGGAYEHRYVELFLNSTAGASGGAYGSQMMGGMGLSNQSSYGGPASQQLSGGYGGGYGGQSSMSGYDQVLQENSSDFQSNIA

Turning to “GLB1 (effect direction: stabilized) (UniProt P16278)”, the pEC50 is 3.35.
Consider “GLO1 (effect direction: destabilized) (UniProt Q04760)”, for which the pEC50 was less than 2.7.
Regarding “GLOD4 (effect direction: stabilized) (UniProt Q9HC38)”, the pEC50 is less than 2.7.
With “GLRX3 (effect direction: stabilized) (UniProt O76003)”, the pEC50 was less than 2.7.
On to “GLUD1 (effect direction: stabilized) (UniProt P00367)”, for which the pEC50 stood at 4.21.
Next, “GNAS (effect direction: stabilized) (UniProt P63092)”: less than 2.7; “GNE (effect direction: stabilized) (UniProt Q9Y223)”: 3.16; “GPD1L (effect direction: stabilized) (UniProt Q8N335)”: 3.09.
Next, “GPKOW (effect direction: stabilized) (UniProt Q92917)”: 3.19; “GPN1 (effect direction: destabilized) (UniProt Q9HCN4)”: 2.83; “GPN3 (effect direction: destabilized) (UniProt Q9UHW5)”: 2.74.
As to “GPS1 (effect direction: stabilized) (UniProt Q13098)”, the negative-log EC50 (pEC50) was less than 2.7.
Next, “GRAMD4 (effect direction: stabilized) (UniProt Q6IC98)”: 3.13.
As for “GRAP (effect direction: stabilized) (UniProt Q13588)”, the pEC50 stood at 3.54.
For the target “GRPEL1 (effect direction: destabilized) (UniProt Q9HAV7)”, the negative-log EC50 (pEC50) worked out at 4.04.
Consider “GRSF1 (effect direction: stabilized) (UniProt Q12849)”, for which the negative-log EC50 (pEC50) was 2.83.
As to “GSN (effect direction: stabilized) (UniProt P06396)”, the pEC50 was 2.94.
Next, “GSS (effect direction: stabilized) (UniProt P48637)”: 3.56; “GSTO1 (effect direction: stabilized) (UniProt P78417)”: less than 2.7; “GTF2B (effect direction: stabilized) (UniProt Q00403)”: 3.26.
In the case of “GTF2I (effect direction: stabilized) (UniProt P78347)”, the pEC50 stood at 3.28.
As to “GTF3A (effect direction: stabilized) (UniProt Q92664)”, the pEC50 amounted to 3.03.
In the case of “GTPBP1 (effect direction: stabilized) (UniProt O00178)” it was 3.28; in that of “GYS1 (effect direction: destabilized) (UniProt P13807)”, 5.03; in that of “H1FX (effect direction: destabilized) (UniProt Q92522)”, less than 2.7.
Take “HEATR3 (effect direction: stabilized) (UniProt Q7Z4Q2)”: the pEC50 is 2.83.
Turning to “HEXA (effect direction: stabilized) (UniProt P06865)”, the pEC50 worked out at 3.22.
With “HEXB (effect direction: stabilized) (UniProt P07686)”, the negative-log EC50 (pEC50) came to 3.01.
As to “HIST1H1B (effect direction: destabilized) (UniProt P16401)”, the pEC50 was less than 2.7.
In the case of “HIST1H1C (effect direction: destabilized) (UniProt P16403)”, the negative-log EC50 (pEC50) was determined as 4.05.
Regarding “HLTF (effect direction: stabilized) (UniProt Q14527)”, the negative logarithm of the EC50 (pEC50) is 4.11.
Take “HMGN4 (effect direction: stabilized) (UniProt O00479)”: the pEC50 worked out at 3.52.
Turning to “HNRNPF (effect direction: stabilized) (UniProt P52597)”, the negative logarithm of the EC50 (pEC50) was less than 2.7.
Take “HNRNPH1 (effect direction: stabilized) (UniProt P31943)”: the pEC50 amounted to 2.93.
In the case of “HNRNPL (effect direction: stabilized) (UniProt P14866)”, the pEC50 was 3.23.
As to “HNRNPR (effect direction: stabilized) (UniProt O43390)”, the pEC50 is 3.04.
As for “HNRNPU (effect direction: stabilized) (UniProt Q00839)”, the pEC50 turned out to be 2.9.
In the case of “HNRNPUL2 (effect direction: stabilized) (UniProt Q1KMD3)” it was 3.39; in that of “HSD17B7 (effect direction: stabilized) (UniProt P56937)”, 3.22; in that of “HSD17B10 (effect direction: stabilized) (UniProt Q99714)”, 3.24.
Consider “HSP90AA1 (effect direction: stabilized) (UniProt P07900)”, for which the pEC50 was more than 5.3.
In the case of “HSP90AB1 (effect direction: stabilized) (UniProt P08238)” it was less than 2.7; in that of “HSPA4 (effect direction: stabilized) (UniProt P34932)”, less than 2.7; in that of “HSPA8 (effect direction: stabilized) (UniProt P11142)”, 4.09.
For the target “HSPA9 (effect direction: stabilized) (UniProt P38646)”, the negative logarithm of the EC50 (pEC50) was 3.94.
Turning to “HSPA14 (effect direction: stabilized) (UniProt Q0VDF9)”, the pEC50 was 2.8.
As to “HTATSF1 (effect direction: stabilized) (UniProt O43719)”, the pEC50 was less than 2.7.
Turning to “HUWE1 (effect direction: stabilized) (UniProt Q7Z6Z7)”, the pEC50 was less than 2.7.
Turning to “IDH3A (effect direction: stabilized) (UniProt P50213)”, the negative-log EC50 (pEC50) was less than 2.7.
In the case of “IKBKG (effect direction: stabilized) (UniProt Q9Y6K9)” it was 3.42; in that of “ILF3 (effect direction: stabilized) (UniProt Q12906)”, 3.13; in that of “ILKAP (effect direction: stabilized) (UniProt Q9H0C8)”, less than 2.7.
As to “IMPA2 (effect direction: destabilized) (UniProt O14732)”, the pEC50 was less than 2.7.
For “IMPDH1 (effect direction: stabilized) (UniProt P20839)”, the pEC50 is 3.32.
Next, “IPO5 (effect direction: stabilized) (UniProt O00410)”: less than 2.7.
Regarding “IPO9 (effect direction: destabilized) (UniProt Q96P70)”, the negative-log EC50 (pEC50) came out at 3.67.
As to “IQGAP1 (effect direction: destabilized) (UniProt P46940)”, the pEC50 was determined as 3.65.
Next, “IRAK4 (effect direction: stabilized) (UniProt Q9NWZ3)”: 3.3; “ISG15 (effect direction: stabilized) (UniProt P05161)”: 2.74.
In the case of “ITPK1 (effect direction: stabilized) (UniProt Q13572)” it was 3.89; in that of “ITPR2 (effect direction: stabilized) (UniProt Q14571)”, 3.28.
On to “JAKMIP1 (effect direction: stabilized) (UniProt Q96N16)”, for which the negative logarithm of the EC50 (pEC50) came to 3.3.
In the case of “JMJD6 (effect direction: stabilized) (UniProt Q6NYC1)” it was 3.21; in that of “KATNA1 (effect direction: stabilized) (UniProt O75449)”, 3.42.
As to “KATNAL1 (effect direction: stabilized) (UniProt Q9BW62)”, the pEC50 turned out to be 3.26.
With “KIF1B (effect direction: stabilized) (UniProt O60333)”, the pEC50 is 3.68.
“KIF2C (effect direction: stabilized) (UniProt Q99661)”: the pEC50 was 4.18.
With “KIF3B (effect direction: stabilized) (UniProt O15066)”, the negative-log EC50 (pEC50) was found to be 4.07.
For “KIF5B (effect direction: stabilized) (UniProt P33176)”, the pEC50 worked out at 4.09.
As to “KIF11 (effect direction: stabilized) (UniProt P52732)”, the negative logarithm of the EC50 (pEC50) was 3.26.
Next, “KIF15 (effect direction: stabilized) (UniProt Q9NS87)”: 3.11; “KIF20A (effect direction: stabilized) (UniProt O95235)”: 3.14.
Regarding “KIF21B (effect direction: stabilized) (UniProt O75037)”, the pEC50 turned out to be 3.38.
In the case of “KLC1 (effect direction: stabilized) (UniProt Q07866)” it was 3.95; in that of “KLC2 (effect direction: stabilized) (UniProt Q9H0B6)”, 4.06; in that of “KLHDC4 (effect direction: stabilized) (UniProt Q8TBB5)”, less than 2.7.
With “KPNB1 (effect direction: stabilized) (UniProt Q14974)”, the pEC50 was determined as 2.96.
For “KRI1 (effect direction: destabilized) (UniProt Q8N9T8)”, the negative-log EC50 (pEC50) came to 2.81.
On to “LAGE3 (effect direction: stabilized) (UniProt Q14657)”, for which the pEC50 was 3.86.
As to “LARP1 (effect direction: stabilized) (UniProt Q6PKG0)”, the negative-log EC50 (pEC50) is less than 2.7.
